Source: patent publication EP4306106A1, “NITRO-CONTAINING COMPOUNDS, COMPOSITIONS AND USES THEREOF” (Universidade de Aveiro, priority 2022, dated 2024)

System: total HDAC
Test: In vitro total HDAC activity (Fluor-de-Lys, HeLa nuclear extract)
Format: biochemical, human
Conditions: screening at 100 µM, result in words
Method: In vitro total HDAC activity was measured according to manufacturer's instructions using a nuclear extract from HeLa cells (human cervical cancer cell line) as HDAC source incubated with the Fluor-de-Lys® substrate (50 µM) for 20 min at room temperature (Fluor-de-Lys®, Enzo® Life Sciences, Antwerpen, Belgium). Reaction was stopped by addition of a developing solution (Fluor-de-Lys® developer I concentrate, Enzo® Life Sciences) containing trichostatin A (TSA) (2 µM). After 15 min of incubation at room temperature, fluorescence signal was measured on a fluorescence microplate reader (SYNERGY HTX multi-mode reader) with an exciting wavelength of 360 nm and emission wavelength of 460 nm. All dilutions of tested compounds were prepared in dimethylsulfoxide (DMSO).
Representative examples of 3-aminopyridines and 3,5-disubstituted nitrobenzenes were screened for their total HDAC inhibition capacity at 100 µM (Table 2). It was observed that only nitro-containing examples were active in the total HDAC screening assay (compounds 1, 3, 9 and 5), which moved forward to the specific HDAC8 isoenzyme assay (Table 3).

SMILES	total HDAC inhibition capacity
Nc1cc(C(=O)c2ccccc2O)cnc1-c1ccc([N+](=O)[O-])cc1 [Compound 3, [5-Amino-6-(4-nitrophenyl)pyridin-3-yl](2-hydroxyphenyl)methanone]	active
Nc1cc(C(=O)c2cc([N+](=O)[O-])ccc2O)cnc1-c1ccccc1 [Compound 1, (5-Amino-6-phenylpyridin-3-yl)(2-hydroxy-5-nitrophenyl)methanone]	active
N#Cc1ccc(-c2ncc(C(=O)c3cc([N+](=O)[O-])ccc3O)cc2N)cc1 [Compound 9, 4-[3-amino-5-(2-hydroxy-5-nitrobenzoyl)pyridin-2-yl]benzonitrile]	active
O=C(c1cc(C(=O)c2cc([N+](=O)[O-])ccc2O)cc([N+](=O)[O-])c1)c1cc([N+](=O)[O-])ccc1O [Compound 5, (5-Nitro-1,3-phenylene)bis[(2-hydroxy-5-nitrophenyl)methanone]]	active

Same assay, conditions: total HDAC activity, nuclear extract from HeLa cells, compound at 100 µM

SMILES	%Inhibition at 100 µM
O=C(c1cc(C(=O)c2cc([N+](=O)[O-])ccc2O)cc([N+](=O)[O-])c1)c1cc([N+](=O)[O-])ccc1O [drawing 37]	73%
Cc1cc(C(=O)c2cc(C(=O)c3cc(C)cc([N+](=O)[O-])c3O)cc([N+](=O)[O-])c2)c(O)c([N+](=O)[O-])c1	65%
O=C(c1cc(C(=O)c2cc(Cl)ccc2O)cc([N+](=O)[O-])c1)c1cc(Cl)ccc1O	Inactive
O=C(c1cc(C(=O)c2ccccc2O)cc([N+](=O)[O-])c1)c1ccccc1O	Inactive
COc1cccc(O)c1C(=O)c1cc(C(=O)c2c(O)cccc2OC)cc([N+](=O)[O-])c1	Inactive
Nc1cc(C(=O)c2ccccc2O)cnc1-c1ccc2ccccc2c1	Inactive
Nc1cc(C(=O)c2cc([N+](=O)[O-])ccc2O)cnc1-c1ccccc1 [drawing 28]	78%
Cc1ccc(O)c(C(=O)c2cc(C(=O)c3cc(C)ccc3O)cc([N+](=O)[O-])c2)c1	Inactive
N#Cc1ccc(-c2ncc(C(=O)c3cc([N+](=O)[O-])ccc3O)cc2N)cc1 [drawing 29]	82%
Nc1cc(C(=O)c2ccccc2O)cnc1-c1ccc([N+](=O)[O-])cc1 [drawing 30]	67%
Cc1cc(C(=O)c2cnc(-c3ccccc3)c(N)c2)c(O)c([N+](=O)[O-])c1	67%
Nc1cc(C(=O)c2ccccc2O)cnc1-c1ccccc1	Inactive

Target: T1, recombinant protein HDAC8 (Homo sapiens, UniProt Q9BY41)
T1 construct: purchased Enzo Life Sciences
T1 sequence (Q9BY41 1-377): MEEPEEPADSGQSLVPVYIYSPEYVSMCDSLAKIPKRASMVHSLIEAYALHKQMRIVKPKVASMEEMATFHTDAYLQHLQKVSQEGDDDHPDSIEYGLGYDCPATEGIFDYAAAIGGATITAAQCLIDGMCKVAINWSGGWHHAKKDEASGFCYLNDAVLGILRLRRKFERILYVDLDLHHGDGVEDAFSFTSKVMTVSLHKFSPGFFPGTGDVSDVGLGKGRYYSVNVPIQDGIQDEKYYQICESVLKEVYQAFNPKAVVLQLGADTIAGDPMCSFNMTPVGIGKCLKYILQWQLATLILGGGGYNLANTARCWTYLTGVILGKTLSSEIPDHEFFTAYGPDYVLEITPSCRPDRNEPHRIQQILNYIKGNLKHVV
Test: In vitro HDAC8 isoenzyme activity (Fluor-de-Lys-HDAC8 substrate)
Format: biochemical
Conditions: 1 U/well, substrate 50 µM
Method: In vitro HDAC8 isoenzyme activity was tested using 1 U/well of recombinant protein HDAC8 (Enzo® Life Sciences) incubated with the Fluor-de-Lys®-HDAC8 substrate (50 µM) for 20 min at room temperature. Reactions were stopped by adding a developer II solution (Fluor-de-Lys® developer II concentrate, Enzo® Life Sciences) containing 2 µM of TSA. After 45 min of incubation at room temperature, fluorescence is measured as for total HDAC activity.

SMILES	IC50 [µM]
Nc1cc(C(=O)c2cc([N+](=O)[O-])ccc2O)cnc1-c1ccccc1 [drawing 39]	74
O=C(c1cc(C(=O)c2cc([N+](=O)[O-])ccc2O)cc([N+](=O)[O-])c1)c1cc([N+](=O)[O-])ccc1O [Compound 5, (5-Nitro-1,3-phenylene)bis[(2-hydroxy-5-nitrophenyl)methanone]]	27
N#Cc1ccc(-c2ncc(C(=O)c3cc([N+](=O)[O-])ccc3O)cc2N)cc1 [drawing 40]	58

System: total HDAC
Test: In vitro total HDAC activity (Fluor-de-Lys, HeLa nuclear extract)
Format: biochemical, human
Conditions: nuclear extract from HeLa cells, 1µM (footnote a)

SMILES	%Inhibition of 1µM
CC(/C=C/C(=O)NO)=C\[C@@H](C)C(=O)c1ccc(N(C)C)cc1 [Trichostatin A]	90^a %
